Assays:
Assay in all cases: relative viability (nuclei count vs DMSO), 5 days (fraction); higher = more cells survive
RO-3306 + Foretinib = compound: C1=CC2=C(C=CC(=C2)C=C3C(=O)NC(=NCC4=CC=CS4)S3)N=C1 [RO-3306] + COc1cc2c(Oc3ccc(NC(=O)C4(C(=O)Nc5ccc(F)cc5)CC4)cc3F)ccnc2cc1OCCCN1CCOCC1 [Foretinib] (partner 0.25 µM)
In short: (§1)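 Relative viability equals treated-well nuclei counts divided by vehicle-well nuclei counts. Counts came from 4× images of lung cancer cell lines grown in 1536-well plates for 5 days after pin-tool dosing on the day after seeding. Dosing used one drug alone or a fixed anchor-drug dose plus five library-drug doses (not always all listed) in √10 steps, and values are medians of duplicate plates.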

RO-3306 + Olaparib = compound: C1=CC2=C(C=CC(=C2)C=C3C(=O)NC(=NCC4=CC=CS4)S3)N=C1 [RO-3306] + O=C(c1cc(Cc2n[nH]c(=O)c3ccccc23)ccc1F)N1CCN(C(=O)C2CC2)CC1 [Olaparib] (partner 8 µM)
In short: as §1

[1] = compound: O=S(=O)(c1ccccc1)N(CC(F)(F)F)c1ccc(C(O)(C(F)(F)F)C(F)(F)F)cc1 + Cc1cc(Nc2cc(N3CCN(C)CC3)nc(Sc3ccc(NC(=O)C4CC4)cc3)n2)n[nH]1 [Tozasertib] (partner 0.1 µM)
In short: as §1

[2] = compound: O=S(=O)(c1ccccc1)N(CC(F)(F)F)c1ccc(C(O)(C(F)(F)F)C(F)(F)F)cc1 + Cc1nc(NC(=O)N2CCC[C@H]2C(N)=O)sc1-c1ccnc(C(C)(C)C(F)(F)F)c1 [Alpelisib] (partner 2 µM)
In short: as §1

[3] = compound: O=S(=O)(c1ccccc1)N(CC(F)(F)F)c1ccc(C(O)(C(F)(F)F)C(F)(F)F)cc1 + O=C(c1cc(Cc2n[nH]c(=O)c3ccccc23)ccc1F)N1CCN(C(=O)C2CC2)CC1 [Olaparib] (partner 8 µM)
In short: as §1

Row | Cell Line | relative viability (RO-3306 + Foretinib; first compound 0.01 µM) | relative viability (RO-3306 + Foretinib; first compound 0.03162 µM) | relative viability (RO-3306 + Foretinib; first compound 0.1 µM) | relative viability (RO-3306 + Foretinib; first compound 0.3162 µM) | relative viability (RO-3306 + Foretinib; first compound 1 µM) | relative viability (RO-3306 + Olaparib; first compound 0.01 µM) | relative viability (RO-3306 + Olaparib; first compound 0.03162 µM) | relative viability (RO-3306 + Olaparib; first compound 0.1 µM) | relative viability (RO-3306 + Olaparib; first compound 0.3162 µM) | relative viability (RO-3306 + Olaparib; first compound 1 µM) | relative viability ([1]; first compound 0.8 µM) | relative viability ([1]; first compound 2.53 µM) | relative viability ([1]; first compound 8 µM) | relative viability ([2]; first compound 0.8 µM) | relative viability ([2]; first compound 2.53 µM) | relative viability ([2]; first compound 8 µM) | relative viability ([3]; first compound 0.8 µM) | relative viability ([3]; first compound 2.53 µM) | relative viability ([3]; first compound 8 µM)
1 | NCI-H460 | 1 | 0.894 | 1.08 | 1.08 | 1.08 | 0.412 | 0.363 | 0.464 | 0.442 | 0.466 | 0.392 | 0.417 | 0.243 | 0.544 | 0.512 | 0.512 | 0.452 | 0.432 | 0.407
2 | HCC-827 | 1.07 | 1 | 1.05 | 1.03 | 1.06 | 0.705 | 0.67 | 0.627 | 0.715 | 0.666 | 0.419 | 0.414 | 0.406 | 1.05 | 1.05 | 0.842 | 0.612 | 0.627 | 0.63
3 | NCI-H838 | 1.13 | 0.966 | 1.06 | 1.16 | 1.06 | 0.894 | 0.562 | 0.768 | 0.808 | 0.869 | 0.278 | 0.268 | 0.25 | 1.12 | 0.923 | 1.07 | 0.937 | 0.736 | 0.86
4 | SW 1573 | 0.89 | 0.879 | 0.934 | 0.993 | 0.887 | 0.492 | 0.483 | 0.432 | 0.444 | 0.442 | 0.182 | 0.17 | 0.215 | 0.889 | 0.697 | 0.757 | 0.527 | 0.43 | 0.514
5 | NCI-H2347 | 0.982 | 0.503 | 0.868 | 0.702 | 0.741 | 0.598 | 0.596 | 0.565 | 0.464 | 0.594 | 0.628 | 0.523 | 0.646 | 1.25 | 1.2 | 1.04 | 0.566 | 0.522 | 0.572
6 | HARA | 1.08 | 0.58 | 0.884 | 0.882 | 0.767 | 0.795 | – | 0.764 | 0.632 | 0.763 | 0.0946 | 0.0891 | 0.102 | 0.647 | 0.721 | 0.539 | 0.995 | – | 0.678
7 | NCI-H1355 | 1.04 | – | 1.05 | 1.02 | 0.942 | 0.682 | 0.659 | 0.738 | 0.8 | 0.786 | 0.555 | 0.5 | 0.518 | 0.861 | 0.727 | 0.715 | 0.824 | 0.737 | 0.719
8 | NCI-H1395 | 0.981 | 0.902 | 0.895 | 0.945 | 0.824 | 0.503 | 0.488 | 0.491 | 0.425 | 0.408 | 0.737 | 0.671 | 0.82 | 0.936 | 1.02 | 1.29 | 0.409 | 0.458 | 0.467
9 | NCI-H1437 | 1.38 | 1.21 | 1.28 | 1.28 | 1.25 | 0.628 | 0.564 | 0.614 | 0.588 | 0.619 | 0.411 | 0.337 | 0.275 | 0.904 | 0.771 | 0.718 | 0.598 | 0.591 | 0.597

Reference: the supplement of paper PMC10307832
